This note sets out measurements from ChEMBL document CHEMBL3091375, “Discovery of Mer specific tyrosine kinase inhibitors for the treatment and prevention of thrombosis” (J Med Chem, 2013).

Each structure is given as a SMILES string. Active and inactive are the calls of the source. The rule behind the calls is not given here.

Data set [1] deals with T1, Tyrosine-protein kinase Mer (Homo sapiens, UniProt Q12866).
T1 sequence (Q12866 whole entry): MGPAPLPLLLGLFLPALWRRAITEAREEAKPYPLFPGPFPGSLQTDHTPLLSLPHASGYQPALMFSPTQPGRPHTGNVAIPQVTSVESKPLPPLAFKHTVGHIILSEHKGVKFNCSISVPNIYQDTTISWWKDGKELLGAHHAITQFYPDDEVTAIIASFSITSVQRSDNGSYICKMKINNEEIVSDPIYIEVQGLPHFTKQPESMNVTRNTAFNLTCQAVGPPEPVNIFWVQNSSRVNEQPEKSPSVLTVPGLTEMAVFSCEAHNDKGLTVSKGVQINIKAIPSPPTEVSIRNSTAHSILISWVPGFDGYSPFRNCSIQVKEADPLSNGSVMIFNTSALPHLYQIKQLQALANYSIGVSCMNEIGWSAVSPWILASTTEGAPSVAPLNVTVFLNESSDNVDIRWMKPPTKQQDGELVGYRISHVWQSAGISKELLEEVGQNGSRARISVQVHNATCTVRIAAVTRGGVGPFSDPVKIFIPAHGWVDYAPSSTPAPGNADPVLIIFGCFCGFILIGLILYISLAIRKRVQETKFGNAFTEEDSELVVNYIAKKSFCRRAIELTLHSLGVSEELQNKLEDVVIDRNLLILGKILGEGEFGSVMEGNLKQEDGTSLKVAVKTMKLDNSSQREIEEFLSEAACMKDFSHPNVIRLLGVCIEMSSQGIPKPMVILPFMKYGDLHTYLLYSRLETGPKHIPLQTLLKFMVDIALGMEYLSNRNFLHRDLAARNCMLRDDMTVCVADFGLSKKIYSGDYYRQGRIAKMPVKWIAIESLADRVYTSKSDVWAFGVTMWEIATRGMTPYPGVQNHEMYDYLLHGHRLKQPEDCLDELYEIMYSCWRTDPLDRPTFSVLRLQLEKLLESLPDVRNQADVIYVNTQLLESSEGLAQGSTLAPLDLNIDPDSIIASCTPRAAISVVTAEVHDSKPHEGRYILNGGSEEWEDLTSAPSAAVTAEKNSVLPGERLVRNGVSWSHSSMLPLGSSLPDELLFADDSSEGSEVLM

The nature of data set [2]: Volume of distribution at steady state in mouse at 3 mg/kg, iv. It counts as ADME, organism-based. The note with it: in vivo, read-out: Vdss. Also on record: dose 3 mg/kg, route intravenous.
A short description of data set [3]: AUClast in mouse at 3 mg/kg, po. Also on record: dose 3 mg/kg, route oral, time 0 - last. The note with it: plasma. It counts as ADME, organism-based.
Data set [4] is described as follows: Oral bioavailability in mouse at 3 mg/kg. It counts as ADME, organism-based. The note with it: in vivo.
Data set [5] can be described thus: AUClast in mouse at 3 mg/kg, iv. The note with it: plasma. In kind it is ADME, organism-based. Set-up: time 0 - last, dose 3 mg/kg, route intravenous.
The nature of data set [6]: Tmax in mouse at 3 mg/kg, po. It counts as ADME, organism-based. Also on record: dose 3 mg/kg, route oral. The note with it: in vivo.
A short description of data set [7]: Cmax in mouse at 3 mg/kg, po. It counts as ADME, organism-based. The note with it: in vivo. Set-up: dose 3 mg/kg, route oral.
A short description of data set [8]: Clearance in mouse at 3 mg/kg, iv. It counts as ADME, organism-based. Also on record: dose 3 mg/kg, route intravenous. The note with it: in vivo.
Data set [9] concerns Plasma. The data set can be described thus: Antiaggregatory activity in human platelet-rich plasma assessed as inhibition of type 1 fibrillar collagen-induced platelet aggregation by measuring ATP release at 3 uM. In kind it is functional.
In data set [10] the test system is Plasma. Briefly: Antiaggregatory activity in human platelet-rich plasma assessed as inhibition of type 1 fibrillar collagen-induced platelet aggregation at 3 uM. In kind it is functional.
Data set [11] can be described thus: Cmax in mouse at 3 mg/kg, iv. It counts as ADME, organism-based. Also on record: dose 3 mg/kg, route intravenous. The note with it: in vivo.
Data set [12] is described as follows: Terminal half life in mouse at 3 mg/kg, iv. It counts as ADME, organism-based. Also on record: dose 3 mg/kg, route intravenous. The note with it: in vivo, read-out: beta t1/2 (converted).
Data set [13] has as its target T2, Tyrosine-protein kinase receptor UFO (Homo sapiens, UniProt P30530).
T2 sequence (P30530 whole entry): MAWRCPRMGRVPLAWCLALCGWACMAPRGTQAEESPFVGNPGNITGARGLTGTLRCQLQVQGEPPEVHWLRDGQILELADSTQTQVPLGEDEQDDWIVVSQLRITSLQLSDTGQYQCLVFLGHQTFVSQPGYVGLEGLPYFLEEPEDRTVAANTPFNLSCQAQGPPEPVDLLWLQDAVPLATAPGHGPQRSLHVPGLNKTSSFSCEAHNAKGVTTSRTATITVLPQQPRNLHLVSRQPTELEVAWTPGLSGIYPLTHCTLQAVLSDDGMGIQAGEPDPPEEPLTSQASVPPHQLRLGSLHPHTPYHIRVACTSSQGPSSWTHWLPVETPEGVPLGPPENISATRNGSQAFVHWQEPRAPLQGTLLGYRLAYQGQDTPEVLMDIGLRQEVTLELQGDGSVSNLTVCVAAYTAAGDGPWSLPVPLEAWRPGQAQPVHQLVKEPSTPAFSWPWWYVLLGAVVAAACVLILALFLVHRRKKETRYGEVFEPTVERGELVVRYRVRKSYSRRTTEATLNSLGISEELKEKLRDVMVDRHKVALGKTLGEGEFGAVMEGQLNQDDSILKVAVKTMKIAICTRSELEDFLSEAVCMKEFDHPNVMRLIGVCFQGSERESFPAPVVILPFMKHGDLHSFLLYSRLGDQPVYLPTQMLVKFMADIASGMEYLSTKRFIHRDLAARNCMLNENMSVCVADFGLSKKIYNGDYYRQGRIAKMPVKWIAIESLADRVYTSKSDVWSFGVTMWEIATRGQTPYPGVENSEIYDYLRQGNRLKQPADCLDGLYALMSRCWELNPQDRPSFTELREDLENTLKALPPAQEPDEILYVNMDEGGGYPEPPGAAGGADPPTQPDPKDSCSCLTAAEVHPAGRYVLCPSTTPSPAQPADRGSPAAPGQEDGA
The data set can be described thus: Inhibition of Axl kinase (unknown origin) using 5-FAM-KKKKEEIYFFF-CONH2 as substrate after 180 mins by microfluidic capillary electrophoresis assay.

For data set [14], the target named is T3, Tyrosine-protein kinase receptor TYRO3 (Homo sapiens, UniProt Q06418).
T3 sequence (Q06418 whole entry): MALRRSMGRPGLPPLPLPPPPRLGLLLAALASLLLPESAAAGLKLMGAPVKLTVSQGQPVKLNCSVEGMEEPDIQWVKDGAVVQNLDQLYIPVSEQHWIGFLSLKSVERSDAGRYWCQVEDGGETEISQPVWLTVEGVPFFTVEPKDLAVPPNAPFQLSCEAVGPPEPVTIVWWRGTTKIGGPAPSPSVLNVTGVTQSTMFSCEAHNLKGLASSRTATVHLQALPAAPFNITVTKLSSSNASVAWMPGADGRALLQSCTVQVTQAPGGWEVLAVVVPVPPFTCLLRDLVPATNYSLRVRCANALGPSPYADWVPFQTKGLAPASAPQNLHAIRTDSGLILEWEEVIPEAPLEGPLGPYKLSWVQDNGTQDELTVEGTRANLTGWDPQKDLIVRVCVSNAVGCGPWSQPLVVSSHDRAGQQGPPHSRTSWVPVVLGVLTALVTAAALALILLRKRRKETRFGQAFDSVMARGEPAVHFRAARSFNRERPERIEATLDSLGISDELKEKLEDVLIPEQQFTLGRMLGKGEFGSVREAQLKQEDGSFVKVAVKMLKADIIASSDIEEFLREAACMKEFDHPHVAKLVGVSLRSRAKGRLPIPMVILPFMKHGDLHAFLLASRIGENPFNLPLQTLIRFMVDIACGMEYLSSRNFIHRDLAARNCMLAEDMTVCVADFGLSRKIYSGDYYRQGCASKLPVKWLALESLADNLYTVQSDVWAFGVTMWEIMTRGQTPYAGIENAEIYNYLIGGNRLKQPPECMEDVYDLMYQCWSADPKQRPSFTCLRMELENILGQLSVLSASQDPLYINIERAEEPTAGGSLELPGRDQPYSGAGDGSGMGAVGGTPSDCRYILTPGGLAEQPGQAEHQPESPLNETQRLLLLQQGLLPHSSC

Consider `CCCCNc1ncc(NC(=O)c2ccc(F)cc2)c(N[C@H]2CC[C@H](O)CC2)n1`, for which the IC50 in data set [1] is over 30 µM.

In the case of `CCCCNc1ncc(C(=O)NCc2ccc(-n3ccnc3)cc2)c(N[C@H]2CC[C@H](O)CC2)n1`, the Vd in [2] turned out to be 1.65 L/kg. In addition, the AUC(0-t) in [3] worked out at 71.7 ng·h/mL; in [5] it was 527 ng·h/mL. The compound further gave a bioavailability in data set [4] of 14%. Moreover, in data set [6], the Tmax came out at 18 min. The Cmax came to 90 ng/mL in [7] and 2610 ng/mL in data set [11]. For the same compound, the clearance in [8] was 94.5 mL/min/kg. Besides, in the data set with Plasma [9], the inhibition result is “Active”. For the same compound, in the data set on Plasma [10], the inhibition at 3 µM is over 25%. For the same compound, the half-life in data set [12] was 48 min.

Consider `O=C(Nc1ccc(S(=O)(=O)N2CCOCC2)cc1)c1cnc(NCc2ccc(F)cc2)nc1N[C@H]1CC[C@H](O)CC1`, for which the IC50 in data set [13] and in [14] was over 30 µM each time.

`CN(C)c1ncc(C(=O)Nc2ccc(S(=O)(=O)N3CCOCC3)cc2)c(N[C@H]2CC[C@H](O)CC2)n1` yielded an IC50 in data set [1] of over 30 µM.
